Source: ChEMBL document CHEMBL5154857, “Discovery of potential novel CRBN modulators by virtual screening and bioassay” (Eur J Med Chem, 2022)

Legend:
Format in all cases: functional
HL-60 = assay: Antitumor activity against human HL-60 cells assessed as inhibition of cell growth at 40 uM incubated for 48 hrs by MTS assay relative to control
A549 [1] = assay: Antitumor activity against human A549 cells assessed as inhibition of cell growth at 40 uM incubated for 48 hrs by MTS assay relative to control
SMMC-7721 = assay: Antitumor activity against human SMMC-7721 cells assessed as inhibition of cell growth at 40 uM incubated for 48 hrs by MTS assay relative to control
MCF7 = assay: Antitumor activity against human MCF7 cells assessed as inhibition of cell growth at 40 uM incubated for 48 hrs by MTS assay relative to control
SW480 = assay: Antitumor activity against human SW480 cells assessed as inhibition of cell growth at 40 uM incubated for 48 hrs by MTS assay relative to control
A549 [2] = assay: Induction of apoptosis in human A549 cells assessed as live cells at 1 uM measured after 24 hrs by Annexin V-PE/7-AAD dual staining based flow cytometry (reference value: 93.3 %)
A549 [3] = assay: Induction of apoptosis in human A549 cells assessed as early apoptotic cells at 1 uM measured after 24 hrs by Annexin V-PE/7-AAD dual staining based flow cytometry (reference value: 4.04 %)
A549 [4] = assay: Induction of apoptosis in human A549 cells assessed as late apoptotic cells at 1 uM measured after 24 hrs by Annexin V-PE/7-AAD dual staining based flow cytometry (reference value: […])
A549 [5] = assay: Induction of apoptosis in human A549 cells assessed as necrotic cells at 1 uM measured after 24 hrs by Annexin V-PE/7-AAD dual staining based flow cytometry (reference value: 0.150 %)

SMILES | inhibition at 40 µM (HL-60) [%] | inhibition at 40 µM (A549 [1]) [%] | inhibition at 40 µM (SMMC-7721) [%] | inhibition at 40 µM (MCF7) [%] | inhibition at 40 µM (SW480) [%] | Activity (A549 [2]) [%] | Activity (A549 [3]) [%] | Activity (A549 [4]) [%] | Activity (A549 [5]) [%]
N#CCCCN1C(=O)C(O)(CC(=O)c2ccc3c(c2)OCCO3)c2ccccc21 (centres undefined) | -21.4 | 7.13 | 11.5 | -0.19 | 13.5 | – | – | – | –
COc1cc(C(C)=O)ccc1OC(=O)C(C)N1C(=O)c2ccccc2C1=O (centres undefined) | 8.86 | 6.5 | 6.87 | 15.3 | 4.18 | – | – | – | –
CC1=CC(C2CC(=O)N(c3ccccc3C)C2=O)CC2C(=O)N(c3ccccc3C)C(=O)C12 (centres undefined) | 10.7 | 4.1 | 9.68 | 12.3 | 6.73 | – | – | – | –
CCOC(=O)C1(Cc2ccccc2)C(=O)N(CCCN(C)C)c2ccccc21 (centres undefined) | 5.85 | 7.46 | 12.8 | 28.9 | 3.98 | – | – | – | –
Cc1cccc(NC(=O)CN2C(=O)C(=O)c3ccccc32)c1 | 25.1 | 7.75 | 40.2 | 45.2 | 31.8 | – | – | – | –
O=C(NCC1(N2CCOCC2)CCCCC1)c1ccc2c(c1)C(=O)N(c1ccc(F)cc1)C2=O | 11.5 | 9.68 | 16.4 | 13.6 | 8.82 | – | – | – | –
O=C(CC1(O)C(=O)N(CN2CCOCC2)c2ccccc21)c1ccc(Cl)cc1 (centres undefined) | 15.6 | 1.72 | 15.2 | 8.23 | 15.3 | – | – | – | –
NC(=O)CN1C(=O)C(O)(CC(=O)c2ccc3c(c2)OCO3)c2ccccc21 (centres undefined) | 21.6 | 11.2 | 11.6 | 6.11 | 14.8 | – | – | – | –
COc1cccc2c1C(=O)c1c(O)c3c(c(O)c1C2=O)C[C@@](O)(C(=O)CO)C[C@@H]3O[C@H]1C[C@H](N)[C@H](O)[C@H](C)O1 [DOXORUBICIN] | – | – | – | – | – | 49.8 | 30.8 | 18.4 | 0.965
